This is an account of results in US4239778A, “Azaprostanoic acid analogs and their use as inhibitors of platelet aggregation” (priority 1978, dated 1980).

Data set [1] concerns platelets (human platelet rich plasma). In words: ADP-induced primary (reversible) platelet aggregation. To be noted: 100 μM, 2 min. pretreatment; 10 μM ADP. The class given is cell-based. The source says:
No effect was observed on the ADP-induced primary aggregation of platelets.

The test system of the next data set is platelets (human PRP). In words: Arachidonic acid-induced platelet aggregation (method of Born). The class given is cell-based. To be noted: for inhibition of arachidonic acid-induced platelet aggregation (in words): 10 μM inhibitor; for inhibition at 10 µM: Homo sapiens, Platelet, human PRP. The method, then:
The effect of various azaprostanoic acids of the invention on arachidonic acid-induced platelet aggregation was determined according to the method of Born, Nature, 194, 927 (1962). At a concentration of 10 μM, trans-13-azaprostanoic acid, and cis-15-azaprostanoic acid, inhibit aggregation 100% and 91%, respectively in response to 300 μM arachidonare. Both the cis and trans-13-aza-20-homoprostanoic acid analogs show significant inhibitory activity, 50% and 71%, respectively.
The relative inhibitory activities of the azaprostanoic acids were determined by varying the concentration of arachidonic acid while keeping the inhibitor concentration constant.

Data set [2] deals with T1, prostaglandin synthetase (cyclooxygenase) (Bos taurus, UniProt O62664).
T1 construct: adrenochrome assay with arachidonic acid
T1 sequence (O62664 25-600): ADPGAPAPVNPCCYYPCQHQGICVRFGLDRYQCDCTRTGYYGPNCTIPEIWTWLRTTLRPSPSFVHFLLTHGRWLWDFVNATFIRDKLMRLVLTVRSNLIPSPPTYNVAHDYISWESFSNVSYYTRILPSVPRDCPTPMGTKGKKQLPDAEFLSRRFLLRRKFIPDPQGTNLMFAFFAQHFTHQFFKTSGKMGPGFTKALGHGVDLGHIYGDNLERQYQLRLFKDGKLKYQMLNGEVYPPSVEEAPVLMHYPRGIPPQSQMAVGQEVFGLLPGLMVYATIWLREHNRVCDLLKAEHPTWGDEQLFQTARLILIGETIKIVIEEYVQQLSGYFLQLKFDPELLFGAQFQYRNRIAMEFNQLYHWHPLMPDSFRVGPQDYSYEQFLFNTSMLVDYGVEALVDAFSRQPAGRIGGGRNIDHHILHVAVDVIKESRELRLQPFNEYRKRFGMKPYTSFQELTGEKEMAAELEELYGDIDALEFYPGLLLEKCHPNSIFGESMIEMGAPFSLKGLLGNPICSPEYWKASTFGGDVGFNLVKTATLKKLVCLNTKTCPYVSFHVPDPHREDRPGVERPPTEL
In words: Inhibition of prostaglandin synthetase (cyclooxygenase): arachidonic acid-dependent formation of adrenochrome from L-epinephrine. To be noted: for inhibition of cyclooxygenase (in words) / inhibition at 500 µM: 5×10^-4 M; for inhibition at 500 µM: read-out: inhibitory activity on cyclooxygenase. The class given is biochemical, bovine (seminal vesicles). The method, then:
A representative sample of the 13-azaprostanoic acid derivatives, and cis-15-azaprostanoic acid were tested for their effect as inhibitors of prostaglandin synthetase (cyclooxygenase). The basis of the assay is the measurement of the arachidonic acid-dependent formation of adrenochrome from L-peinephrine during prostaglandin biosynthesis [See, generally, the procedure of Takaguchi, et al., Prostaglandins, 2, 169 (1972)].
In order to check the possibility that the compounds might be inhibitors of the cyclooxygenase enzyme, they were tested in a standard prostaglandin biosynthesis assay according to the method of Takagushi, et al., Prostaglandins, 2, 169 (1972). The basis of the assay is the measurement of the arachidonic acid-dependent formation of adrenochrome from L-epinephrine during prostaglandin biosynthesis. Although the assay is an indirect measurement of cyclooxygenase activity, it offers the advantage that total enzyme activity is measured and is not limited to the measurement of any one product of the biotransformation.

The subject of data set [3] is aspirin-treated platelets (human PRP). In words: Aggregation of aspirin-treated platelets by transferred externally generated endoperoxides/thromboxane A2. The class given is cell-based. The method, then:
The effect of trans-13-azaprostanoic acid on platelet aggregation induced by externally generated endoperoxides and thromboxane A2 was investigated. The endoperoxides and thromboxane A2 were generated by the addition of 500 μM arachidonic acid to 0.75 ml of human platelet-rich plasma (PRP). […] The endoperoxides and thromboxane transferred caused the aspirin-treated platelets to aggregate.
It has been shown that the formation of thromboxanes is closely associated with the initiation of platelet aggregation and occurs rapidly (within 30 sec.) when induced by arachidonic acid. Therefore, the aggregating effect of thromboxane A2 can be studied by first generating the agent in one sample of PRP, and then transferring a portion of this to a second sample of PRP. […] Thus, any aggregation induced by transferred material is due to thromboxane A2 and/or prostaglandin endoperoxides. […] This experiment was repeated several times with identical results.

The test system of the next data set is platelet rich plasma. Put plainly: Platelet aggregation with 500 μM arachidonic acid (Table IV). The class given is cell-based. As for the experimental part: (§1) Platelet rich plasma was aggregated with 500 μM arachidonic acid and three minutes following arachidonate addition, aliquots of the plasma were drawn for TXB2 determinations.
Data set [4] relates to platelet conversion of AA to thromboxane B2 (TXB2). Put plainly: TXB2 formation in platelet rich plasma aggregated with arachidonic acid (radioimmunoassay). Format: cell-based. Conditions: AA 500 μM alone. The method, then: as §1
The test system of a further data set is thromboxane synthetase. To be noted: cited from earlier work.
A further data set relates to ADP-induced aggregation. To be noted: vs PGE1; cited from earlier work.
For data set [5] the following is noted: in vivo; cited from earlier work.
Another data set deals with cyclooxygenase. To be noted: cited from earlier work.
Where [6] appears, read: 10^-5 M (10 μM) inhibitor, 300 μM arachidonate.
Setting [7] is: 10^-5 M inhibitor, 400 μM arachidonate.
The mark [8] stands for this setting: 10^-5 M inhibitor, 500 μM arachidonate.

Each structure is given as a SMILES string. Entries after “also recorded” stand apart in the source; their conditions may differ.

`O=C(O)CCCCCC[C@@H]1CCC[C@H]1NCc1ccccc1` (relative stereo) [Example 3 trans]: the “effect on ADP-induced primary aggregation” value (“effect” below) in data set [1] is reported as “did not alter reversible, primary phase aggregation”. For the same molecule, the “inhibition of arachidonic acid-induced platelet aggregation (in words)” value in the data set with platelets (human PRP) was “inactive”. Besides, the inhibition at 10 µM in the data set on platelets (human PRP) (setting [6]), with platelets (human PRP) (setting [7]) and in the data set with platelets (human PRP) (setting [8]) was 0% throughout. For the same molecule, the “inhibition of cyclooxygenase (in words)” value in data set [2] is on record as “did not significantly inhibit”.

Turning to `CCCCCCCN[C@H]1CCC[C@H]1CCCCCCC(=O)O` (relative stereo) [Example 4 cis, cis-13-Azaprostanoic acid], in data set [1], the “effect” value is “did not alter reversible, primary phase aggregation”. In addition, the values for the inhibition at 10 µM with platelets (human PRP) (setting [6]), in the data set with platelets (human PRP) (setting [7]) and with platelets (human PRP) (setting [8]) were 43%, 11% and 0%, respectively. For the same molecule, the “inhibition of cyclooxygenase (in words)” value in data set [2] was “did not significantly inhibit”.

For `CCCCCCCN[C@@H]1CCC[C@H]1CCCCCCC(=O)O` (relative stereo) [Example 4 trans, trans-13-azaprostanoic acid], the “effect” value in data set [1] is reported as “did not alter reversible, primary phase aggregation”. Besides, the “aggregation induced by transferred thromboxane A2/endoperoxide mixture” value in [3] (100 μM pre-incubation, aspirin-treated platelets) was “totally inhibited; also recorded: no aggregation was observed”. For the same molecule, the inhibition at 10 µM with platelets (human PRP) (setting [6]) is 100%; in the data set on platelets (human PRP) (setting [7]), 66%; in the data set on platelets (human PRP) (setting [8]) it was 19%. Moreover, the “inhibition of platelet aggregation (in words)” value in the data set on platelets (human PRP) (summary of screening) was “potent inhibitors of platelet aggregation”. In [2], the “inhibition of cyclooxygenase (in words)” value is “did not significantly inhibit”.

On to `CCCCCCN[C@@H]1CCC[C@H]1CCCCCCC(=O)O` (relative stereo) [Example 5 trans, trans-13-aza-20-norprostanoic acid], for which the inhibition at 10 µM in the data set with platelets (human PRP) (setting [6]) came out at 14%; with platelets (human PRP) (setting [7]), 0%; with platelets (human PRP) (setting [8]) it was 0%. Moreover, in data set [2], the “inhibition of cyclooxygenase (in words)” value is recorded as “did not significantly inhibit”.

Take `CCCCCCCCN[C@H]1CCC[C@H]1CCCCCCC(=O)O` (relative stereo) [Example 6 cis, cis-13-Aza-20-homoprostanoic acid]: the inhibition at 10 µM came to 50% with platelets (human PRP) (setting [6]), 11% with platelets (human PRP) (setting [7]) and 0% in the data set on platelets (human PRP) (setting [8]). The inhibition at 500 µM in data set [2] was around 30%.

Turning to `CCCCCCCCN[C@@H]1CCC[C@H]1CCCCCCC(=O)O` (relative stereo) [Example 6 trans, trans-13-aza-20-homoprostanoic acid], the inhibition at 10 µM in the data set with platelets (human PRP) (setting [6]) is 71%; in the data set on platelets (human PRP) (setting [7]) it was 7%; in the data set with platelets (human PRP) (setting [8]) it was 0%. The inhibition at 500 µM in data set [2] was around 30%.

On to `CCCCCNCC[C@H]1CCC[C@H]1CCCCCCC(=O)O` (relative stereo) [Example 8 cis, 15-Azaprostanoic acid], for which the “effect” value in data set [1] is listed as “did not alter reversible, primary phase aggregation”. For the same molecule, the values for the inhibition at 10 µM with platelets (human PRP) (setting [6]), with platelets (human PRP) (setting [7]) and in the data set on platelets (human PRP) (setting [8]) were 91%, 16% and 0%, respectively.

In the case of `CCCCCCCN[C@@H]1CCC[C@@H]1CCCCCCC(=O)O` (relative stereo) [cis-13-aza], the “inhibition of arachidonic acid-induced platelet aggregation (in words)” value in the data set on platelets (human PRP) was “inactive”.

`CCCCC/C=C\C/C=C\C/C=C\C/C=C\CCCC(=O)O` [Arachidonic Acid (AA), Arachidonic Acid]: in the data set on platelet rich plasma (AA 500 μM alone), the “% Aggregation” value stood at 80%. In data set [3] (500 μM arachidonic acid, aspirin 0.5 mg/ml), the “aggregation of aspirin-treated platelets by arachidonic acid” value was “did not cause aggregation”. This molecule also gave a TXB2 in [4] of 1179 ± 37 ng/mL.

For the molecule `CN(C)CCCOc1nn(Cc2ccccc2)c2ccccc12` [Benzydamine], the “inhibition of thromboxane synthetase (in words)” value in the data set with thromboxane synthetase is reported as “more than twice as effective in inhibiting thromboxane synthetase than in inhibiting prostaglandin biosynthesis (cyclooxygenase)”.

Take `CCCCCC[C@H](O)/C=C/[C@H]1[C@H](O)CC(=O)[C@@H]1CCCCCCC(=O)O` [Example 20-homo-PGE1, 20-homo-PGE1]: the “potency relative to PGE1 as inhibitor of ADP-induced aggregation” value with ADP-induced aggregation is on record as 3.82 times.

As for `CCCC[C@H](O)/C=C/[C@H]1[C@H](O)CC(=O)[C@@H]1CCCCCCC(=O)O` [Example 20-nor-PGE1, 20-nor-PGE1], the “potency relative to PGE1 as inhibitor of ADP-induced aggregation (in words)” value with ADP-induced aggregation was “only half as potent as PGE1”.

Regarding `CCCCC[C@H](O)/C=C/[C@H]1C(=O)C[C@H](O)[C@@H]1C/C=C\CCCC(=O)O` [PGD2], the “biological half-life (in words)” value in [5] is “very short biological half-lives”.

`CCCCC[C@H](O)/C=C/[C@H]1[C@H](O)CC(=O)[C@@H]1CCCCCCC(=O)O` [PGE1]: in data set [5], the “biological half-life (in words)” value is on record as “very short biological half-lives”.

On to `COc1ccc2c(c1)c(CC(=O)O)c(C)n2C(=O)c1ccc(Cl)cc1` [indomethacin, reference compound], for which the “inhibition of prostaglandin biosynthesis / cyclooxygenase (in words)” value in the data set on cyclooxygenase is listed as “inhibit prostaglandin biosynthesis by blocking the conversion of substrate fatty acids to endoperoxides”. For the same molecule, the “inhibition of aggregation (in words)” value in the data set on platelet rich plasma (indomethacin 20 μM) is “totally blocks aggregation”. The “inhibition of prostaglandin biosynthesis (in words)” value in [2] (indomethacin 2×10^-5 M) is listed as “completely inhibited”. Besides, the inhibition at 20 µM in data set [2] (read-out: inhibition of enzyme activity) was determined as 100%.
